Results: patent US20220249484A1, “METHODS FOR PREDICTING RESPONSIVENESS OF CANCER TO FERROPTOSIS-INDUCING THERAPIES” (Memorial Sloan Kettering Cancer Center, priority 2019, published 2022)

Legend:
NF639 cells [1] = test: Expression of EMT-related genes by qPCR after TGF-β; assay type: cell-based, mouse; details: various concentrations of TGF-β, 48 h
Method: RNA extraction and qRT-PCR. RNA was extracted using the TRIzol reagent (Invitrogen). 20% chloroform was added to each sample, vortexed briefly, and incubated at room temperature for 15 min. Samples were then centrifuged at high speed at 4° C. for 15 min. The aqueous phase was moved to a new tube and an equal volume of isopropanol was added. Samples were incubated at room temperature for 10 min, followed by centrifugation at high speed at 4° C. for 10 min. Pellets were washed in 95% ethanol, dried, and resuspended in nuclease-free water. cDNA was synthesized using iScript™ cDNA Synthesis Kit according to the manufacturer's instructions (Bio-Rad). qRT-PCR was performed with IQ™ SYBR® Green Supermix (Bio-Rad) in a CFX Connect Real-Time PCR Detection System (Bio-Rad).
The potential link between epithelial-mesenchymal transition (EMT) and ferroptosis was examined using cells generated from mammary tumors of MMTV-neu mice. NF639 cells, derived from mouse mammary tumors containing MMTV-neu, were treated with various concentrations of TGF-β for 48 h to induce EMT. TGF-β can enhance EMT in cells bearing overactive HER2/neu signaling. Expression of a panel of EMT-related genes was assayed by qPCR as indicated.

NF639 cells [2] = test: Cystine deprivation-induced ferroptosis after TGF-β; assay type: cell-based, mouse; details: 6 ng/μL TGF-β 48 h; 3.2×10^5 cells/3.5 cm^2 well; cystine-free 12 h; untreated cells highly resistant
Method: To determine the effect of TGF-β on cystine deprivation induced ferroptosis, NF639 cells were treated with or without 6 ng/μL TGF-β for 48 h, at which point they were plated at low density (0.8 cells×10^5/3.5 cm^2 well), grown overnight, and treated with media containing or lacking cystine, or lacking cystine with 1 μM ferrostatin-1 for 12 h. NF639 cells were also plated at a high density of 3.2×10^5 cells/3.5 cm^2 well, grown overnight and treated with media containing or lacking cystine, or lacking cystine with 1 μM ferrostatin-1 for 12 h. Cell death was measured by Sytox green staining coupled with flow cytometry.

TGF-β
expression of EMT-related genes (NF639 cells [1]): upregulated the expression of multiple EMT-related genes | cell death under cystine starvation at high cell density (NF639 cells [2]): died under cystine starvation at high cell density
